From patent US9598532B2, “Terpolymers as pressure-sensitive adhesives” (Surmodics, Inc., priority 2010, dated 2017)

Assay: In vivo elution of minocycline from the implant device
Conditions: within 72 hours
Experimental: The final implant device prepared above was pressed onto a silicone-release liner under normal ambient conditions (30-40% relative humidity). The implant device was vacuum sealed in foil pouches (with argon backflow) in a dry room (<20% relative humidity). The implant device was sterilized using 22-28 kGy of gamma radiation at a slow dose rate of 4-6 kGy/hour. Gamma irradiation was performed on dry ice, but can also be performed at ambient temperature. The bioactive agent content of the implant device was within +/−10% of the target dose. Greater than 80% minocycline eluted in vivo within 72 hours.

- minocycline eluted in vivo: Greater than 80%
Compound: CN(C)c1ccc(O)c2c1C[C@H]1C[C@H]3[C@H](N(C)C)C(O)=C(C(N)=O)C(=O)[C@@]3(O)C(O)=C1C2=O [Minocycline]
